Patent publication US7157561B2, “Methods of inhibiting transmission of a costimulatory signal of lymphocytes” (Roche Diagnostics Operations, Inc., priority 2001, dated 2007)

Experiments:
[1] = system: antibody ATZ 4.1; assay: Antibody specificity ELISA (competition of free drug with atazanavir-BSA conjugate), antibody ATZ 4.1; type: binding, mouse; conditions: for ED50 (M/L): free drug concentration giving 50% of binding in absence of free drug, 4-parameter logistic fit; for % Cross Rx: relative to atazanavir ED50
Description: (§1) Screening of growing hybridomas was carried out by an ELISA using the atazanavir-BSA conjugate (7) and free atazanavir. Microplates were coated with 50 μL atazanavir-BSA conjugate at 1 μg/mL in 0.1 M carbonate buffer, pH 9.5 for 1 hour at 37° C. (humidified). The plates were then emptied and filled with a post-coat solution consisting of Tris buffer, 1% gelatin hydrolysate, 2% sucrose, and 0/17% TWEEN 20 (all from Sigma Chemical Co.). The plates were incubated for an additional 1 hour at 37° C. (humidified) after which they were washed with phosphate-buffered saline containing 0.1% TWEEN 20. The plates were then filled with a 2% sucrose solution in 0.15 M Tris, pH 7.2–7.4 briefly, then emptied and allowed to air dry at room temperature. When dried, the plates were packed in zip-lock bags containing several desiccant pillows, sealed, and stored at 4° C. until use.
(§2) When the growing clones were judged ready for testing, 25 μL of supernatant from the wells were taken and transferred to 96-well flexible plates. Culture medium was added to each well to provide a 1:10 dilution of the media sample. Two atazanavir-BSA coated wells were used for each culture well tested. One well received 25 μL of PBS buffer, the other received 25 μL of PBS containing atazanavir drug at a concentration of 800 ng/ml. Twenty-five microliters of the diluted sample were transferred to each of two of the coated wells above. The plates were incubated covered for 1 hour at 37° C., then washed with PBS-TWEEN. The wells were then filled with 100 μL of goat anti-mouse IgG-HRP conjugate (Zymed Labs) diluted 1:5,000 in PBS-TWEEN and the plates re-incubated for 1 hour. The plates were then washed again, and 100 μL of K-BLUE SUBSTRATE (Neogen Corp) were added to each well. This was allowed to develop for 5–15 minutes, the reaction being stopped by the addition of 100 μL of 1 N HCl. Color was read via a microplate reader at 450 nm and collected by computer for analysis. Criteria for selection were binding to the well in which the PBS was added and significant inhibition of binding in the well receiving the free drug.
(§3) The antibody containing culture supernatants from the expansion cultures were subjected to specificity analysis by the following procedure. First, the titer appropriate for analysis was determined by dilution analysis. A dilution of antibody providing for approximately 50% of maximal binding was selected for proceeding to the next step. Second, binding to the atazanavir-BSA conjugate was examined at the above antibody dilution, in the presence of varying amounts of seven HIV protease inhibitor drugs. The data was subjected to analysis by non-linear regression curve fitting to a 4-parameter logistic function. That parameter which describes the concentration of the free drug which corresponds to 50% of the binding in the absence of free drug is termed the ED50 for that drug. The specificity of the antibody can thus be described by comparing the ED50 of the cognate drug, atazanavir, or atz ED50 with the other values for other drugs fitted from those data according to the following equation (using nelfinavir data for this example):
(§4) [formula] The four parameter logistic function used is
(§5) [formula] where S is the curvature parameter, ODmax is the optical density with 0 drug concentration, ODmin is the optical density of the background of the instrument, and ODx is the optical density observed at drug concentration X in moles/liter (M/L).
(§6) Atazanavir metabolite is 4-pyridin-2-yl-benzoic acid (Synchem, Inc.).

[2] = system: antibody ATZ 3.1; assay: Antibody specificity ELISA (competition of free drug with atazanavir-BSA conjugate), antibody ATZ 3.1; type: binding, mouse; conditions: for ED50 (M/L): free drug concentration giving 50% of binding in absence of free drug, 4-parameter logistic fit; for % Cross Rx: relative to atazanavir ED50
Description: as §1, §2, §3, §4, §5, §6

Structure (SMILES)	ED50 (M/L) [1]	% Cross Rx [1] [%]	ED50 (M/L) [2]	% Cross Rx [2] [%]
CC(C)CN(C[C@@H](O)[C@H](Cc1ccccc1)NC(=O)O[C@H]1CCOC1)S(=O)(=O)c1ccc(N)cc1 [Amprenavir, amprenavir]	>2 × 10^−6 M/L	<1	>2 × 10^−6 M/L	<1
O=C(O)c1ccc(-c2ccccn2)cc1 [Atazanavir metabolite, 4-pyridin-2-yl-benzoic acid]	>2 × 10^−6 M/L	<1	>2 × 10^−6 M/L	<1
COC(=O)N[C@H](C(=O)N[C@@H](Cc1ccccc1)[C@@H](O)CN(Cc1ccc(-c2ccccn2)cc1)NC(=O)[C@@H](NC(=O)OC)C(C)(C)C)C(C)(C)C [Atazanavir, atazanavir]	4.4 × 10^−6 M/L	100	7 × 10^−7 M/L	100
CC(C)(C)NC(=O)[C@@H]1CN(Cc2cccnc2)CCN1C[C@@H](O)C[C@@H](Cc1ccccc1)C(=O)N[C@H]1c2ccccc2C[C@H]1O [Indinavir, indinavir]	>2 × 10^−6 M/L	<1	>2 × 10^−6 M/L	<1
Cc1cccc(C)c1OCC(=O)N[C@@H](Cc1ccccc1)[C@@H](O)C[C@H](Cc1ccccc1)NC(=O)[C@H](C(C)C)N1CCCNC1=O [Lopinavir, lopinavir]	>2 × 10^−6 M/L	<1	>2 × 10^−6 M/L	<1
Cc1c(O)cccc1C(=O)N[C@@H](CSc1ccccc1)[C@H](O)CN1C[C@H]2CCCC[C@H]2C[C@H]1C(=O)NC(C)(C)C [Nelfinavir, nelfinavir]	>2 × 10^−6 M/L	<1	>2 × 10^−6 M/L	<1
CC(C)c1nc(CN(C)C(=O)N[C@H](C(=O)N[C@@H](Cc2ccccc2)C[C@H](O)[C@H](Cc2ccccc2)NC(=O)OCc2cncs2)C(C)C)cs1 [Ritonavir, ritonavir]	>2 × 10^−6 M/L	<1	>2 × 10^−6 M/L	<1
CC(C)(C)NC(=O)[C@@H]1C[C@@H]2CCCC[C@@H]2CN1C[C@@H](O)[C@H](Cc1ccccc1)NC(=O)[C@H](CC(N)=O)NC(=O)c1ccc2ccccc2n1 [Saquinavir, saquinavir]	>2 × 10^−6 M/L	<1	>2 × 10^−6 M/L	<1
